Reference: patent publication US8575179B2, “Dihydropyrazolopyrimidinone derivatives” (MSD K.K., priority 2008, dated 2013)

Legend:
[1] = system: Cdc2 (Cdk1) tyrosine-15 phosphorylation in NCI-H1299 cells; test: Inhibitory effect on Cdc2 (Cdk1) tyrosine-15 phosphorylation in cells (Pharmacological Test 2, ELISA); type: cell-based; details: Homo sapiens; NCI-H1299 cells pretreated with 200 nM camptothecin for 16 hours, test compound with nocodazole for 8 hours; ratio of tyrosine-15-phosphorylated Cdc2 to Cdc2
Description: Pharmacological Test 2 (Method for Determining Drug Effect Using Cells (Inhibitory Effect on Cdc2 (Cdk1) Tyrosine-15 Phosphorylation))
Fetal bovine serum (FBS) was purchased from Morgate, Inc.; an RPMI-1640 medium and a DMEM medium were purchased from Invitrogen, Inc.; camptothecin was purchased from Sigma Co.; gemcitabine was purchased from Eli Lilly Japan K.K.; nocodazole and protease inhibitor cocktail were purchased from Sigma Co.; a rabbit anti-Cdc2 antibody and a mouse anti-Cdc2 antibody were purchased from Santa Cruz Biotechnology, Inc.; a rabbit anti-tyrosine-15-phosphorylated Cdc2 antibody and a horseradish peroxidase-labeled anti-mouse IgG antibody were purchased from Cell Signaling Technology, Inc.; and Sure Blue Reserve TMB peroxidase substrate was purchased from Kirkegaard & Perry Laboratories, Inc.
A human non-small cell lung cancer cell line (NCI-H1299) and a human colon cancer cell line (WiDr) can be obtained from American Type Culture Collection (ATCC).
In the method using NCI-H1299 cells, the cells were suspended in an RPMI-1640 medium supplemented with 10% FBS, and 100 μl, of the resulting cell suspension was dispensed in a Nunclon Delta treated 96-well plastic plate purchased from Nunc, Inc. at a density of 2000 cells per well, and the plate was incubated overnight at 37° C. under an atmosphere of 5% CO2 and 95% air. Camptothecin was dissolved in dimethyl sulfoxide (DMSO) and further the resulting solution was diluted with an RPMI-1640 medium supplemented with 10% FBS. Then, 50 μL of the diluted solution was added to each well of the plate in which the cells were seeded in advance such that the final concentration of camptothecin was 200 nM, and the plate was incubated at 37° C. under an atmosphere of 5% CO2 and 95% air for 16 hours. A test compound was serially diluted with DMSO, and further diluted with an RPMI-1640 medium supplemented with 10% FBS containing 4000 nM nocodazole. Then, 50 μL of the test compound solution was added to each well of the plate in which the cells treated with camptothecin were seeded, and the plate was incubated at 37° C. under an atmosphere of 5% CO2 and 95% air for 8 hours. Then, the culture medium was removed from each well and 100 μL of a cell lysis buffer was added to each well, and the plate was shaken at 4° C. for 2 hours, and thereafter the liquid in the plate was frozen at −80° C. and then thawed, which was used as a lysed cell solution. Cdc2 and tyrosine-15-phosphorylated Cdc2 in this lysed cell solution were measured by an enzyme-linked immunosorbent assay (ELISA method), and a ratio of tyrosine-15-phosphorylated Cdc2 to Cdc2 was calculated to determine a 50% effective concentration (EC50, nM) of the test compound for inhibition of phosphorylation in cells. […]

Wee1 kinase = target: T1, Wee1 kinase (Homo sapiens, UniProt P30291); test: Wee1 kinase inhibitory effect (Pharmacological Test 1); type: biochemical; details: GST-tagged Wee1 kinase, Poly(Lys, Tyr) substrate, 10 μM ATP, 30° C. for 30 minutes
T1 construct: made in house; host or cells: Sf9 insect cells (recombinant baculovirus)
Description: Pharmacological Test 1 (Wee1 Kinase Inhibitory Effect)
A cDNA of Wee1 kinase with glutathione-S-transferase (GST) fused at the amino terminal thereof was inserted into a baculovirus expression vector to construct a recombinant baculovirus, with which cells of an insect cell line Sf9 were infected to overexpress the target protein. The infected cells were collected and lysed, and then the GST-tagged Wee1 kinase protein was adsorbed to a glutathione column and eluted from the column with glutathione, and the active fraction was desalted in a desalting column to give a purified enzyme.
In measurement of the Wee1 kinase activity, a synthetic peptide, Poly(Lys, Tyr) hydrobromide (Lys:Tyr (4:1)) purchased from Sigma was used as the substrate.
The amount of the reaction mixture was 21.1 μL; and the composition of the reaction buffer was 50 mM Tris-HCl buffer (pH 7.4)/10 mM magnesium chloride/1 mM dithiothreitol. The purified Wee1 kinase, 2.5 μg of the substrate peptide, 10 μM of non-labeled adenosine triphosphate (ATP) and 1 μCi of [γ-^33P]-labeled ATP (2500 Ci/mmol or more) were added to the reaction buffer, and the resulting mixture was incubated at 30° C. for 30 minutes. Thereafter, 10 μL of 350 mM phosphate buffer was added to the reaction system to stop the reaction. The substrate peptide was adsorbed on a P81 paper filter 96-well plate and the plate was washed several times with 130 mM phosphate buffer, and the radioactivity thereof was counted using a liquid scintillation counter. The [γ-^33P]-labeled ATP was purchased from Amersham Bioscience, Ltd.
The addition of a test compound to the reaction system was carried out by preparing a series of dilutions of the compound with dimethyl sulfoxide (DMSO) and adding 1.1 μL of each dilution to the reaction system. As a control, 1.1 μL of DMSO was added to the reaction system.

T1 sequence (P30291 whole entry): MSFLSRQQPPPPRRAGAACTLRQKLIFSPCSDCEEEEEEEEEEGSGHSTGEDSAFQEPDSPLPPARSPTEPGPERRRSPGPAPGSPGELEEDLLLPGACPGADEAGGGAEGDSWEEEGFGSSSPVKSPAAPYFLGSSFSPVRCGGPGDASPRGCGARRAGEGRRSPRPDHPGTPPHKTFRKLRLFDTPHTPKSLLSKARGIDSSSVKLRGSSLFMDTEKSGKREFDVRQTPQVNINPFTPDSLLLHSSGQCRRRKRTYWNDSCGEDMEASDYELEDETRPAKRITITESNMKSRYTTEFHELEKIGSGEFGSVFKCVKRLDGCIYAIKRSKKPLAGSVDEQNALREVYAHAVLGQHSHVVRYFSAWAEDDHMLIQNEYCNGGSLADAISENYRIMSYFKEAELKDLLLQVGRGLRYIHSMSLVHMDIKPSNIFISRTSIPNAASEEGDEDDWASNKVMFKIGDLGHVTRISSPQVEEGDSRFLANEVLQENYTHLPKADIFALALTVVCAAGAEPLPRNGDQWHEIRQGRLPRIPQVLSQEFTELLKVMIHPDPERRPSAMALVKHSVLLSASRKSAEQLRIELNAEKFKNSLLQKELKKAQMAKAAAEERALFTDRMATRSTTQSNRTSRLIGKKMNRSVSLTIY

Cc1cc(Nc2ncc3c(=O)n(-c4c(Cl)cccc4Cl)c(=O)[nH]c3n2)ccc1N1CCN(C)CC1 [Example 1, 3-(2,6-dichlorophenyl)-7-{[3-methyl-4-(4-methylpiperazin-1-yl)phenyl]amino}pyrimido[4,5-d]pyrimidine-2,4(1H,3H)-dione]
IC50 [1]: 87 nM
IC50 (Wee1 kinase): 7 nM

Cc1cc(Nc2ncc3c(=O)n(-c4c(C)cccc4Cl)c(=O)[nH]c3n2)ccc1N1CCN(C)CC1 [Example 2, 3-(2-chloro-6-methylphenyl)-7-{[3-methyl-4-(4-methylpiperazin-1-yl)phenyl]amino}pyrimido[4,5-d]pyrimidine-2,4(1H,3H)-dione]
IC50 [1]: 79 nM
IC50 (Wee1 kinase): 9 nM

Cc1cc(Nc2ncc3c(=O)n(-c4c(Cl)cccc4Cl)c(=O)n(C)c3n2)ccc1N1CCN(C)CC1 [Example 3, 3-(2,6-dichlorophenyl)-1-methyl-7-{[3-methyl-4-(4-methylpiperazin-1-yl)phenyl]amino}pyrimido[4,5-d]pyrimidine-2,4(1H,3H)-dione]
IC50 [1]: 45 nM
IC50 (Wee1 kinase): 8 nM

CN1CCN(c2ccc(Nc3ncc4c(=O)n(-c5c(Cl)cccc5Cl)c(=O)n(C)c4n3)cc2)CC1 [Example 4, 3-(2,6-dichlorophenyl)-1-methyl-7-{[4-(4-methylpiperazin-1-yl)phenyl]amino}pyrimido[4,5-d]pyrimidine-2,4(1H,3H)-dione]
IC50 [1]: 33 nM
IC50 (Wee1 kinase): 33 nM

CC(=O)N1CCN(c2ccc(Nc3ncc4c(=O)n(-c5c(Cl)cccc5Cl)c(=O)[nH]c4n3)cc2C)CC1 [Example 9, 7-{[4-(4-acetylpiperazin-1-yl)-3-methylphenyl]amino}-3-(2,6-dichlorophenyl)pyrimido[4,5-d]pyrimidine-2,4(1H,3H)-dione]
IC50 (Wee1 kinase): 4 nM

CN1CCCN(c2ccc(Nc3ncc4c(=O)n(-c5c(Cl)cccc5Cl)c(=O)[nH]c4n3)cc2)CC1 [Example 31, 3-(2,6-dichlorophenyl)-7-{[4-(4-methyl-1,4-diazepan-1-yl)phenyl]amino}pyrimido[4,5-d]pyrimidine-2,4(1H,3H)-dione]
IC50 (Wee1 kinase): 4 nM

O=C(CO)N1CCN(c2ccc(Nc3ncc4c(=O)n(-c5c(Cl)cccc5Cl)c(=O)[nH]c4n3)cc2)CC1 [Example 32, 3-(2,6-dichlorophenyl)-7-({4-[4-(hydroxyacetyl)piperazin-1-yl]phenyl}amino)pyrimido[4,5-d]pyrimidine-2,4(1H,3H)-dione]
IC50 (Wee1 kinase): 6 nM

COC(C)(C)C(=O)N1CCN(c2ccc(Nc3ncc4c(=O)n(-c5c(Cl)cccc5Cl)c(=O)[nH]c4n3)cc2)CC1 [Example 33, 3-(2,6-dichlorophenyl)-7-({4-[4-(2-methoxy-2-methylpropionyl)piperazin-1-yl]phenyl}amino)pyrimido[4,5-d]pyrimidine-2,4(1H,3H)-dione]
IC50 (Wee1 kinase): 9 nM
